Columns and labels:
[1] = molecular target: Multidrug resistance protein 1a (Rattus norvegicus) (UniProt Q6PSM0); assay: TP_TRANSPORTER: Western blot, primary hepatocytes; assay type: functional, cell-based; details: Hepatocyte
[2] = molecular target: ATP-dependent translocase ABCB1 (Rattus norvegicus, UniProt P43245); assay: TP_TRANSPORTER: Northern blot from primary hepatocytes; assay type: functional, Hepatocyte
ATP-dependent translocase ABCB1, sequence (P43245 whole entry): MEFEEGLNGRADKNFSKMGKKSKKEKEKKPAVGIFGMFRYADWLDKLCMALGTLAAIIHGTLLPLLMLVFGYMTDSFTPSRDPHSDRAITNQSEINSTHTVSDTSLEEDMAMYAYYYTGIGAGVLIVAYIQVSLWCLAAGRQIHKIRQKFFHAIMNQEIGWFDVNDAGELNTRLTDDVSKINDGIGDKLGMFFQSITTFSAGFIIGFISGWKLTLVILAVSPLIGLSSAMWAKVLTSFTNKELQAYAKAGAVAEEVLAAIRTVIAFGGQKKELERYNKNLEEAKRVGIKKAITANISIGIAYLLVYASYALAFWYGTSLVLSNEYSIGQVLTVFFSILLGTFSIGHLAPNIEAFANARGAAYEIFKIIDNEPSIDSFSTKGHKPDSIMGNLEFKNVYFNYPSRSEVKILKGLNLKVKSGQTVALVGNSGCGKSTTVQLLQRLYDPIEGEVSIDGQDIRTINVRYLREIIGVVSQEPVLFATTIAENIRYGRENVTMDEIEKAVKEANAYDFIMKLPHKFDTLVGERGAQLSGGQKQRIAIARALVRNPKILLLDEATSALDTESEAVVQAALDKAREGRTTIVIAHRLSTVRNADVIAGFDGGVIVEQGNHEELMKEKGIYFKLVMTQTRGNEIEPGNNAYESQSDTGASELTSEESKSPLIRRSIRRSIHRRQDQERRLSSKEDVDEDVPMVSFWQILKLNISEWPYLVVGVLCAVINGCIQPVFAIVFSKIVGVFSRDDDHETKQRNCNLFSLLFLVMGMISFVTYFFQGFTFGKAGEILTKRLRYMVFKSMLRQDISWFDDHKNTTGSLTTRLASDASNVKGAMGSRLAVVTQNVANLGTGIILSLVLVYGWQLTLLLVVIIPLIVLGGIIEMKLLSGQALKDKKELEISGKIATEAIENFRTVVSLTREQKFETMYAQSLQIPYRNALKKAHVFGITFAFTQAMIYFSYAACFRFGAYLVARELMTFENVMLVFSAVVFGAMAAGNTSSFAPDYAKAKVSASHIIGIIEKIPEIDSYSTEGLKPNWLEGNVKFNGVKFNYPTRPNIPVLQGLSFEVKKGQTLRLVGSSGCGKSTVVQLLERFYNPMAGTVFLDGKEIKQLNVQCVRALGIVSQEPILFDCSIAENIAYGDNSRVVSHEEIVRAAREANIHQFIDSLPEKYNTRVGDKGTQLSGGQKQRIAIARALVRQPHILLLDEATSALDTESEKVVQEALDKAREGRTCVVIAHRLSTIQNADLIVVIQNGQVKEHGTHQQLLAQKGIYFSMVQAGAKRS

Multidrug resistance protein 1a (Rattus norvegicus), sequence (Q6PSM0 as listed by the source): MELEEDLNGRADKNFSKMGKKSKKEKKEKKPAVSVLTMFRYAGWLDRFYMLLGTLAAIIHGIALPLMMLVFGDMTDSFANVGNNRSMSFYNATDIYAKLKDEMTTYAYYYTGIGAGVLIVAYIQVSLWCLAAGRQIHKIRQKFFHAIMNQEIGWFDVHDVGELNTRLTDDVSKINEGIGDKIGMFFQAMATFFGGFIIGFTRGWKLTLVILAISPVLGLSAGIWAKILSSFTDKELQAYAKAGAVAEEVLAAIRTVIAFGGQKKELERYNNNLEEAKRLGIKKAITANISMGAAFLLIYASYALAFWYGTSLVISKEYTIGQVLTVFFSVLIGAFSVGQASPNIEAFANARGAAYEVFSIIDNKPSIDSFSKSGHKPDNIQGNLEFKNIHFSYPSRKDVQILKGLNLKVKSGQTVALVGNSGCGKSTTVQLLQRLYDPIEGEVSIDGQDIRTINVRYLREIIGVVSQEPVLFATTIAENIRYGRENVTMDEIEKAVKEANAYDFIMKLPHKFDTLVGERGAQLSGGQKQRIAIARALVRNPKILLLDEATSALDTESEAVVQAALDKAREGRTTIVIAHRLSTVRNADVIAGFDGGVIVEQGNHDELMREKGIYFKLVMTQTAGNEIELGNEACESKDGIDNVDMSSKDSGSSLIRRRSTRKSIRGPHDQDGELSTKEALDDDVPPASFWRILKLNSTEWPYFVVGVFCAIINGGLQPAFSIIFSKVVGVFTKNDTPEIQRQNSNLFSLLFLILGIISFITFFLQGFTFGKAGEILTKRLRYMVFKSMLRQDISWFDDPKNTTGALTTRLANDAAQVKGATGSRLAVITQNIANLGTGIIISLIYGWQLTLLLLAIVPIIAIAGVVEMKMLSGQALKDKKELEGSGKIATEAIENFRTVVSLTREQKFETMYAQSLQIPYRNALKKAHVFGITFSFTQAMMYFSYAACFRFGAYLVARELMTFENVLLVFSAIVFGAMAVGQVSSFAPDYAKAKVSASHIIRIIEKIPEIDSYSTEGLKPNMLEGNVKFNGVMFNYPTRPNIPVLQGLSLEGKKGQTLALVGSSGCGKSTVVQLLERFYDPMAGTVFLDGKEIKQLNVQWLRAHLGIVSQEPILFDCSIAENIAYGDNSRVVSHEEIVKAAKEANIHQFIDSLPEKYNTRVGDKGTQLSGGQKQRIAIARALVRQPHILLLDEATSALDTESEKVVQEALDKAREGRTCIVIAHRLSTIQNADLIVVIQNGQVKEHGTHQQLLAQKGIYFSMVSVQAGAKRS

SMILES | Activity [1] | Activity [2]
CC(=O)Nc1ccc2c(c1)Cc1ccccc1-2 | inducer [+] | 
Cc1ccc2cc3c(ccc4ccccc43)c3c2c1CC3 [3-METHYLCHOLANTHRENE] | inducer [+] | inducer [+]

— ChEMBL document CHEMBL2074549, “Regulation of 2-acetylaminofluorene-and 3-methylcholanthrene--mediated induction of multidrug resistance and cytochrome P450IA gene family expression in primary hepatocyte cultures and rat liver” (Mol Carcinog, 1991)
